Results on 10 compounds are retold here after US20250213701A1, “MEDICAMENT FOR TREATING HUMAN TUMOR BASED ON ERF3A-TARGETING PROTEOLYSIS MECHANISM” (SUZHOU DEGEN BIO-MEDICAL CO., LTD., priority 2022, published 2025).

Holding throughout (type): cell-based, human
One assay deals with VCaP cells. In words: Anti-proliferative toxicity against prostate cancer cell line Vcap (CCK8). The conditions noted are these: 3 days, CCK8. In outline: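 VCaP cells (DMEM, 10% FBS) seeded 20000 cells/well, cultured 72 h, then exposed in triplicate to compound at final well concentrations of 0.00001–0.16 μM for 3 days at 37 °C, 5% CO2. Viability by CCK8, 1–4 h at 37 °C, absorbance at 450 nm.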

The test system of the next assay is 22Rv1 cells. The assay can be described thus: Anti-proliferative toxicity against prostate cancer cell line 22Rv1 (CCK8). The following applies: 3 days, CCK8. In outline: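 22Rv1 cells pre-cultured for 48 h, then exposed to compounds at 0.00001-1.0 μM final, in triplicate, for 3 days. Viability read by CCK8 absorbance at 450 nm after 1-4 h at 37 °C.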
For another assay, the system named is PC-3 cells. In words: Anti-proliferative toxicity against prostate cancer cell line PC-3 (CCK8). The following applies: 3 days. In outline:
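PC-3 cells (4000/well, pre-cultured 24 h) exposed in triplicate to compound at final 0.00001-1.0 μM for 3 days at 37 °C, 5% CO2. Viability read by CCK8, 1-4 h at 37 °C, absorbance at 450 nm.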

One may read the IC50 as the point on the concentration scale where inhibition reaches its midpoint. Higher therefore signals a need for much substance. `C[C@]12C=CC(=O)N[C@@H]1CC[C@@H]1[C@@H]2CC[C@]2(C)[C@@H](C(=O)Nc3cccc(N[C@@H]4CNC[C@@H](Nc5cccc6c5C(=O)N(C5CCC(=O)NC5=O)C6=O)C4)c3)CC[C@@H]12` (stereo partly drawn) [C76, N-(3-(N—(N-(4-(2-(3-(2,6-dioxopiperidine))-isoindole-1,3-dione))-piperidine-3S,5S-diamine))phenyl)-3-oxo-4-aza-5α-androst-1-ene-17β-carboxamide]: the IC50 with VCaP cells (Homo sapiens, 72 h) lay within 0.01 to 1 µM; in the assay on 22Rv1 cells (Homo sapiens, 72 h), 0.01 to 1 µM; with PC-3 cells (Homo sapiens, 72 h), 0.01 to 1 µM.
For the compound `CN1C[C@@H](Nc2cccc(NC(=O)[C@H]3CC[C@H]4[C@@H]5CC[C@H]6NC(=O)C=C[C@]6(C)[C@H]5CC[C@]34C)c2)C[C@H](Nc2cccc3c2C(=O)N(C2CCC(=O)NC2=O)C3=O)C1` (stereo partly drawn) [C77, N-(3-(N—(N-(4-(2-(3-(2,6-dioxopiperidine))-isoindole-1,3-dione))-1-methylpiperidine-3S,5S-diamine))phenyl)-3-oxo-4-aza-5α-androst-1-ene-17β-carboxamide], the 50% inhibitory concentration (IC50) with VCaP cells (Homo sapiens, 72 h) lay in the range of 0.01 to 1 µM; in the assay on 22Rv1 cells (Homo sapiens, 72 h), 0.01 to 1 µM; in the assay on PC-3 cells (Homo sapiens, 72 h), 0.01 to 1 µM.
As to `C[C@]12C=CC(=O)N[C@@H]1CC[C@@H]1[C@@H]2CC[C@]2(C)[C@@H](C(=O)Nc3cccc(N[C@@H]4CCC[C@@H](Nc5ccc(F)c6c5C(=O)N(C5CCC(=O)NC5=O)C6=O)C4)c3)CC[C@@H]12` (stereo partly drawn) [C78, N-(3-(N—(N-(7-fluoro-4-(2-(3-(2,6-dioxopiperidine))-isoindole-1,3-dione))-1R,3R-cyclohexanediamine))phenyl)-3-oxo-4-aza-5α-androst-1-ene-17β-carboxamide], the IC50 in the assay on VCaP cells (Homo sapiens, 72 h) is 0.0001 to 0.01 µM; in the assay with 22Rv1 cells (Homo sapiens, 72 h), 0.0001 to 0.01 µM; in the assay on PC-3 cells (Homo sapiens, 72 h), 0.0001 to 0.01 µM.
Regarding `C[C@]12C=CC(=O)N[C@@H]1CC[C@@H]1[C@@H]2CC[C@]2(C)[C@@H](C(=O)Nc3cccc(N[C@@H]4CCC[C@@H](Nc5cc(F)cc6c5C(=O)N(C5CCC(=O)NC5=O)C6=O)C4)c3)CC[C@@H]12` (stereo partly drawn) [C79, N-(3-(N—(N-(6-fluoro-4-(2-(3-(2,6-dioxopiperidine))-isoindole-1,3-dione))-1R,3R-cyclohexanediamine))phenyl)-3-oxo-4-aza-5α-androst-1-ene-17β-carboxamide], the IC50 fell in the range of 0.0001 to 0.01 µM in the assay with VCaP cells (Homo sapiens, 72 h); 0.0001 to 0.01 µM in the assay with 22Rv1 cells (Homo sapiens, 72 h); 0.0001 to 0.01 µM in the assay on PC-3 cells (Homo sapiens, 72 h).
In the case of `CN(c1cccc(NC(=O)[C@H]2CC[C@H]3[C@@H]4CC[C@H]5NC(=O)C=C[C@]5(C)[C@H]4CC[C@]23C)c1)[C@@H]1CCC[C@@H](Nc2cccc3c2C(=O)N(C2CCC(=O)NC2=O)C3=O)C1` (stereo partly drawn) [C80, N-(3-(N—(N-methyl-N-(4-(2-(3-(2,6-dioxopiperidine))-isoindole-1,3-dione))-1R,3R-cyclohexanediamine))phenyl)-3-oxo-4-aza-5α-androst-1-ene-17β-carboxamide], the IC50 lay in the range of 0.0001 to 0.01 µM with VCaP cells (Homo sapiens, 72 h); 0.0001 to 0.01 µM in the assay with 22Rv1 cells (Homo sapiens, 72 h); 0.01 to 1 µM in the assay with PC-3 cells (Homo sapiens, 72 h).
Turning to `C[C@]12CCC(=O)N[C@@H]1CC[C@@H]1[C@@H]2CC[C@]2(C)[C@@H](C(=O)Nc3cccc(N[C@@H]4CCC[C@@H](Nc5cccc6c5C(=O)N(C5CCC(=O)NC5=O)C6=O)C4)c3)CC[C@@H]12` (stereo partly drawn) [C81, N-(3-(N—(N-(4-(2-(3-(2,6-dioxopiperidine))-isoindole-1,3-dione))-1R,3R-cyclohexanediamine))phenyl)-3-oxo-4-aza-5α-androstane-17β-carboxamide], the IC50 in the assay with VCaP cells is 0.0001 to 0.01 µM; in the assay on 22Rv1 cells, 0.0001 to 0.01 µM; with PC-3 cells, 0.01 to 1 µM.
Turning to “N-(3-(N—(N-(4-(2-(3-(2,6-dioxopiperidine))-isoindole-1,3-dione))-6S-methyl-1S,3R-cyclohexanediamine))phenyl)-3-oxo-4-aza-5α-androst-1-ene-17β-carboxamide and N-(3-(N—(N-(4-(2-(3-(2,6-dioxopiperidine))-isoindole-1,3-dione))-4R-methyl-1R,3S-cyclohexanediamine))phenyl)-3-oxo-4-aza-5α-androst-1-ene-17β-carboxamide [C70]”, the IC50 was in the range of 0.0001 to 0.01 µM in the assay on VCaP cells, 0.0001 to 0.01 µM with 22Rv1 cells and 0.01 to 1 µM in the assay on PC-3 cells.
Regarding “N-(3-(N—(N-(4-(2-(3-(2,6-dioxopiperidine))-isoindole-1,3-dione))-(1R,4S)-bicyclo[2,2,1]heptane-2R,6R-diamine))phenyl)-3-oxo-4-aza-5α-androst-1-ene-17β-carboxamide and N-(3-(N—(N-(4-(2-(3-(2,6-dioxopiperidine))-isoindole-1,3-dione))-(1S,4R)-bicyclo[2,2,1]heptane-2R,6R-diamine))phenyl)-3-oxo-4-aza-5α-androst-1-ene-17β-carboxamide [C71]”, the half-maximal inhibitory concentration (IC50) with VCaP cells was 0.01 to 1 µM; in the assay on 22Rv1 cells, 0.01 to 1 µM; in the assay on PC-3 cells, above 1 µM.
For “N-(3-(N—(N-(4-(2-(3-(2,6-dioxopiperidine))-isoindole-1,3-dione))-(1R,4S)-bicyclo[2,2,2]octane-2R,6R-diamine))phenyl)-3-oxo-4-aza-5α-androst-1-ene-17β-carboxamide and N-(3-(N—(N-(4-(2-(3-(2,6-dioxopiperidine))-isoindole-1,3-dione))-(1S,4R)-bicyclo[2,2,2]octane-2R,6R-diamine))phenyl)-3-oxo-4-aza-5α-androst-1-ene-17β-carboxamide [C72]”, the IC50 is 0.01 to 1 µM in the assay with VCaP cells, 0.01 to 1 µM in the assay on 22Rv1 cells and above 1 µM in the assay on PC-3 cells.
On to “N-(3-(N—(N-(4-(2-(3-(2,6-dioxopiperidine))-isoindole-1,3-dione))-(1R,5S)-bicyclo[3,2,2]nonane-7R,8R-diamine))phenyl)-3-oxo-4-aza-5α-androst-1-ene-17β-carboxamide and N-(3-(N—(N-(4-(2-(3-(2,6-dioxopiperidine))-isoindole-1,3-dione))-(1S,5R)-bicyclo[3,2,2]nonane-7R,8R-diamine))phenyl)-3-oxo-4-aza-5α-androst-1-ene-17β-carboxamide [C73]”, for which the IC50 is 0.01 to 1 µM in the assay with VCaP cells, 0.01 to 1 µM with 22Rv1 cells and above 1 µM in the assay on PC-3 cells.
